Assay results as given in patent US8143307B2, “Benzothiophen-2-carbonylguanidine derivatives, preparation thereof, and pharmaceutical composition containing the same” (Korea Research Institute of Chemical Technology, priority 2004, dated 2012).

How the values were obtained:
Human NHE-1 = target: T1, Human NHE-1 (Homo sapiens, UniProt P19634); experiment: Inhibitory effect on NHE-1 in PS120/NHE-1 cells (recovery from intracellular acidosis, BCECF fluorescence); assay type: cell-based; conditions: human NHE-1 expressed PS120 cells; concentration at which recovery from intracellular acidosis was 50% inhibited
T1 construct: expressed in transfected cells; host or cells: CCL39-derived PS120 cells (PS120/NHE-1)
T1 sequence (P19634 whole entry): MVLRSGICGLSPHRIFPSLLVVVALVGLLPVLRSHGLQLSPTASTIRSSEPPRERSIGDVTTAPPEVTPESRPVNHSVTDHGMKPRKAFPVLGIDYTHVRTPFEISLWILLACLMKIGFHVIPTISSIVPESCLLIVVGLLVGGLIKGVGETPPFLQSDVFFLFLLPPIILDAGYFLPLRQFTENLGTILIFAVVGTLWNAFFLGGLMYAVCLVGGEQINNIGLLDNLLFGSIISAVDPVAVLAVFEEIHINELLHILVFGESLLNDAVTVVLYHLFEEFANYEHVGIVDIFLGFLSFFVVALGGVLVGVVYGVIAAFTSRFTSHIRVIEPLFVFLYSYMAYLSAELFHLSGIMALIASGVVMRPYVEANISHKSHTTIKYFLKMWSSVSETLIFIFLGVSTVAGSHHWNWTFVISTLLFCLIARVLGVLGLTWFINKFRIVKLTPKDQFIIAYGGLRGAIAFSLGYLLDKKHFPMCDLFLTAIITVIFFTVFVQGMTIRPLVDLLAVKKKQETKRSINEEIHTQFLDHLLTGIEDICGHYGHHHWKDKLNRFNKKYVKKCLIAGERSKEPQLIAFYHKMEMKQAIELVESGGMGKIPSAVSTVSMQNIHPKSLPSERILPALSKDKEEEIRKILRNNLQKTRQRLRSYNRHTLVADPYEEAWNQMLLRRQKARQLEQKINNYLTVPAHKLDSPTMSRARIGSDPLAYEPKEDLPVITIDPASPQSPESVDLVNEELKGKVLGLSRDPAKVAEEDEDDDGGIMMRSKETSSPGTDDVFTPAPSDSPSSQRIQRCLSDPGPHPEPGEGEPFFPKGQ

[1] = test system: isolated ischemic rat heart; experiment: Cardioprotective effect in isolated ischemic rat heart model (Langendorff); conditions: 10 μM, 30 min global ischemia, 30 min reperfusion
Protocol: Male rats (300 450 g, the Korea Research Institute of Chemical Technology, Experimental Animal Lab) were anesthetized by intraperitoneal injection with sodium pentobarbital at a dose of 100 mg/kg and were intravenously administered with heparine at a dose of 1000 U/kg, followed by the excision of the heart. In detail, a tracheotomy was performed and a tracheal cannula (PE 240) was inserted into the trachea for subsequent artificial ventilation with room air using a rodent ventilator. […] A catheter tip manometer connected to a latex balloon filled with a mixture of ethanol and distilled water (1:1 v/v) was inserted via an incision in the left atrium into the left ventricle, and the intraventricular pressure thereof transmitted to the latex balloon was measured isovolumetrically with a transducer and recorded on a recording system (Linearcorder mark 8 WR 3500) with the aid of an amplifier (Plugsys bridge amplifier). After stabilizing the heart for 15 min, the balloon volume was adjusted to create a left ventricular end-diastolic pressure (LVEDP) of 5 mmHg during the initial baseline period. The volume of the balloon was maintained until the end of the experiment. Baseline heart contraction function, spontaneous heart rate (HR) and coronary flow (CF) were determined from the left ventricular contraction interval. The left ventricular developed pressure (LVDP), which is regarded as an index of contractile function of the isolated heart, was calculated by subtracting left ventricular end-diastolic pressure (LVEDP) from left ventricular peak systolic pressure (LVSP). In contrast to the heart in the body, the Langendorff heart cannot be measured for cardiac output and thus, RPP (rate-pressure product), which is an important indirect indicator for cardiac performance, was calculated by multiplying heart rate (HR) by LVDP. Throughout the experiment, the temperature of the heart was maintained constant by […] in a 37° C. physiological solution to which 95% O2/5% CO2 was continuously supplied. The heart thus stabilized was perfursed for 10 min with a solution of the compounds of the invention or control drugs in DMSO (dimethylsulfoxide) diluted with HBS (final DMSO conc. 0.04%), or with the solvent only (a negative control; 0.04% DMSO) and then measured again for contractile function, heart rate (HR) and coronary flow (CF). The supply of perfusates was completely stopped for 30 min in order to induce global ischemia in the heart, followed by reperfusion for 30 min. The indices (LVDP, HR, LVEDP, and CF) were measured again. After the reperfusion, the total level of lactate dehydrogenase (LDH) in the reperfusates was measured using a kit and taken as an index of ischemic myocardial injury. A negative control group was treated with the solvent only while cariporide was used as a positive control.

CS(=O)(=O)O.N#Cc1cccc2sc(C(=O)N=C(N)N)cc12 [Example 42, (4-Cyanobenzothiophene-2-Carbonyl)Guanidine Methanesulfonate]
IC50 (Human NHE-1): 2020 nM
LDH (free LDH level upon reperfusion) [1]: 14.7 u/g
LVEDP (left ventricular end-diastolic pressure) [1]: 6.0 mmHg
